Results from patent US20050009840A1 (SUGEN, INC., priority 2003, published 2005).

Molecular target: T1, HGFR (Homo sapiens, UniProt P08581)
T1 construct: purchased Upstate 14-526
Assay: HGFR continuous-coupled spectrophotometric assay
Format: biochemical
Conditions: at 1 pM; Table 7, library procedure 42; read-out: % Inhibition (percent c-MET inhibition)

T1 sequence (P08581 974-1390 limits assumed): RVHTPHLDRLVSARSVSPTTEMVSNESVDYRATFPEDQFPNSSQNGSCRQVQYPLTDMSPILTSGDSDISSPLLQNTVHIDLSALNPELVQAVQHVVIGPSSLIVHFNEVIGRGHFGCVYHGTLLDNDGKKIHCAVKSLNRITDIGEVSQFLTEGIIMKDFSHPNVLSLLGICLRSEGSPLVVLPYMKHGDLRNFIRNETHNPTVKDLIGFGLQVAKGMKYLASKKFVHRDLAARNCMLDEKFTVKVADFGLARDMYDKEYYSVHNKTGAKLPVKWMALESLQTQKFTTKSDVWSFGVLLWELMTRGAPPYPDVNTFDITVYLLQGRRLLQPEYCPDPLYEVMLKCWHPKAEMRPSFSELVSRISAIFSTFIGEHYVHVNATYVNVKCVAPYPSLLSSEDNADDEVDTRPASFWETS

inhibition at 1 pM [%]	SMILES
24	Nc1ncc(-c2ccc(C(=O)N3CCC(N4CCCC4)CC3)cc2)cc1OCc1cc(F)ccc1F
8	Nc1ncc(-c2ccc(C(=O)N3CCC(N4CCCC4)CC3)cc2)cc1OCc1ncc(C(F)(F)F)cc1Cl
37	Nc1ncc(-c2ccc(C(=O)N3CCC(N4CCCC4)CC3)cc2)cc1OCc1csc2ccc(Cl)cc12
36	CC(C)(C)c1ccc(-c2noc(COc3cc(-c4ccc(C(=O)N5CCC(N6CCCC6)CC5)cc4)cnc3N)n2)cc1
6	Cc1noc(C)c1-c1nc(COc2cc(-c3ccc(C(=O)N4CCC(N5CCCC5)CC4)cc3)cnc2N)no1
8	COc1ccccc1-c1nc(COc2cc(-c3ccc(C(=O)N4CCC(N5CCCC5)CC4)cc3)cnc2N)no1
9	Nc1ncc(-c2ccc(C(=O)N3CCC(N4CCCC4)CC3)cc2)cc1OCc1csc(-c2ccc(Cl)cc2)n1
6	Cc1nc(COc2cc(-c3ccc(C(=O)N4CCC(N5CCCC5)CC4)cc3)cnc2N)cs1
27	Nc1ncc(-c2ccc(C(=O)N3CCC(N4CCCC4)CC3)cc2)cc1OCc1noc(-c2cccc(C(F)(F)F)c2)n1
14	CCOC(=O)CCNC(=O)c1cccc(COc2cc(-c3ccc(C(=O)N4CCC(N5CCCC5)CC4)cc3)cnc2N)c1
15	COC(=O)c1ccc(COc2cc(-c3ccc(C(=O)N4CCC(N5CCCC5)CC4)cc3)cnc2N)c(OC)c1
15	Nc1ncc(-c2ccc(C(=O)N3CCC(N4CCCC4)CC3)cc2)cc1OCc1ccc(S(=O)(=O)Nc2ccc(F)cc2)cc1
17	Nc1ncc(-c2ccc(C(=O)N3CCC(N4CCCC4)CC3)cc2)cc1OCc1ccc(-c2ccnc(Br)n2)cc1
12	Nc1ncc(-c2ccc(C(=O)N3CCC(N4CCCC4)CC3)cc2)cc1OCc1cscn1
15	Nc1ncc(-c2ccc(C(=O)N3CCC(N4CCCC4)CC3)cc2)cc1OCc1cccc(CO)n1
13	Nc1ncc(-c2ccc(C(=O)N3CCC(N4CCCC4)CC3)cc2)cc1OCc1cccc(-c2ccnc(Br)n2)c1
13	Nc1ncc(-c2ccc(C(=O)N3CCC(N4CCCC4)CC3)cc2)cc1OCc1ccc(C(F)(F)F)nc1
33	Nc1ncc(-c2ccc(C(=O)N3CCC(N4CCCC4)CC3)cc2)cc1OCc1ccc(-c2cnc(Br)nc2)cc1
11	Nc1ncc(-c2ccc(C(=O)N3CCC(N4CCCC4)CC3)cc2)cc1OCc1cn2ccccc2n1
17	COc1cc(COc2cc(-c3ccc(C(=O)N4CCC(N5CCCC5)CC4)cc3)cnc2N)cc(OC)c1
15	CCOC(=O)CCNS(=O)(=O)c1ccc(COc2cc(-c3ccc(C(=O)N4CCC(N5CCCC5)CC4)cc3)cnc2N)cc1
31	Nc1ncc(-c2ccc(C(=O)N3CCC(N4CCCC4)CC3)cc2)cc1OCc1ccc(C(=O)c2ccccc2)cc1
23	COc1cccc(COc2cc(-c3ccc(C(=O)N4CCC(N5CCCC5)CC4)cc3)cnc2N)c1OC
22	Cc1cc(-c2onc(C)c2COc2cc(-c3ccc(C(=O)N4CCC(N5CCCC5)CC4)cc3)cnc2N)no1
12	Cc1nc2ccc(COc3cc(-c4ccc(C(=O)N5CCC(N6CCCC6)CC5)cc4)cnc3N)cc2c(=O)[nH]1
14	Nc1ncc(-c2ccc(C(=O)N3CCC(N4CCCC4)CC3)cc2)cc1OCc1ccc(S(=O)(=O)N2CCOCC2)cc1
18	COCOc1ccc(S(=O)(=O)c2ccc(COc3cc(-c4ccc(C(=O)N5CCC(N6CCCC6)CC5)cc4)cnc3N)cc2)cc1

inhibition at 1 pM [%]	SMILES
13	COc1ccc2sc(COc3cc(-c4ccc(C(=O)N5CCC(N6CCCC6)CC5)cc4)cnc3N)cc2c1
13	Nc1ncc(-c2ccc(C(=O)N3CCC(N4CCCC4)CC3)cc2)cc1OCc1ccc(S(=O)(=O)c2ccc(F)cc2)cc1
10	Cc1nc2scc(COc3cc(-c4ccc(C(=O)N5CCC(N6CCCC6)CC5)cc4)cnc3N)c2c(=O)[nH]1
9	Nc1ncc(-c2ccc(C(=O)N3CCC(N4CCCC4)CC3)cc2)cc1OCc1cncc2ccccc12
10	Cn1c(COc2cc(-c3ccc(C(=O)N4CCC(N5CCCC5)CC4)cc3)cnc2N)nc2ccccc21
9	Nc1ncc(-c2ccc(C(=O)N3CCC(N4CCCC4)CC3)cc2)cc1OCc1nc(-c2ccccn2)no1
50	Nc1ncc(-c2ccc(C(=O)N3CCC(N4CCCC4)CC3)cc2)cc1OCc1c(F)ccc(F)c1Cl
39	Cc1ccc(COc2cc(-c3ccc(C(=O)N4CCC(N5CCCC5)CC4)cc3)cnc2N)c(F)c1F
51	Cc1ccc(F)c(COc2cc(-c3ccc(C(=O)N4CCC(N5CCCC5)CC4)cc3)cnc2N)c1F
27	Cc1cc(COc2cc(-c3ccc(C(=O)N4CCC(N5CCCC5)CC4)cc3)cnc2N)ccc1F
29	Cc1ccc(F)cc1COc1cc(-c2ccc(C(=O)N3CCC(N4CCCC4)CC3)cc2)cnc1N
24	Nc1ncc(-c2ccc(C(=O)N3CCC(N4CCCC4)CC3)cc2)cc1OCc1cccc(Br)c1
15	Nc1ncc(-c2ccc(C(=O)N3CCC(N4CCCC4)CC3)cc2)cc1OCc1nc(N)c2ccccc2n1
17	Nc1ncc(-c2ccc(C(=O)N3CCC(N4CCCC4)CC3)cc2)cc1OCc1cccnc1
16	Nc1ncc(-c2ccc(C(=O)N3CCC(N4CCCC4)CC3)cc2)cc1OCc1ccccn1
20	COc1c(C)cnc(COc2cc(-c3ccc(C(=O)N4CCC(N5CCCC5)CC4)cc3)cnc2N)c1C
19	Cc1onc(-c2ccccc2)c1COc1cc(-c2ccc(C(=O)N3CCC(N4CCCC4)CC3)cc2)cnc1N
16	Nc1ncc(-c2ccc(C(=O)N3CCC(N4CCCC4)CC3)cc2)cc1OCc1cn2cccnc2n1
18	Cc1cc(C)n2nc(COc3cc(-c4ccc(C(=O)N5CCC(N6CCCC6)CC5)cc4)cnc3N)nc2n1
22	Nc1ncc(-c2ccc(C(=O)N3CCC(N4CCCC4)CC3)cc2)cc1OCc1cccc2cccnc12
63	Cn1nc(-c2ccccc2)c(COc2cc(-c3ccc(C(=O)N4CCC(N5CCCC5)CC4)cc3)cnc2N)c1Cl
17	Nc1ncc(-c2ccc(C(=O)N3CCC(N4CCCC4)CC3)cc2)cc1OCc1nc2ccccc2s1
18	Cc1ccc(-c2nnc(COc3cc(-c4ccc(C(=O)N5CCC(N6CCCC6)CC5)cc4)cnc3N)o2)cc1
23	Nc1ncc(-c2ccc(C(=O)N3CCC(N4CCCC4)CC3)cc2)cc1OCc1cc(-c2ccccc2)no1
16	Cc1cc(COc2cc(-c3ccc(C(=O)N4CCC(N5CCCC5)CC4)cc3)cnc2N)no1
18	COC(=O)Nc1cc(COc2cc(-c3ccc(C(=O)N4CCC(N5CCCC5)CC4)cc3)cnc2N)on1
14	Cn1ccnc1COc1cc(-c2ccc(C(=O)N3CCC(N4CCCC4)CC3)cc2)cnc1N

inhibition at 1 pM [%]	SMILES
14	Cc1nc(COc2cc(-c3ccc(C(=O)N4CCC(N5CCCC5)CC4)cc3)cnc2N)n(C)n1
34	Nc1ncc(-c2ccc(C(=O)N3CCC(N4CCCC4)CC3)cc2)cc1OCc1nc2cc(C(F)(F)F)ccc2s1
24	Nc1ncc(-c2ccc(C(=O)N3CCC(N4CCCC4)CC3)cc2)cc1OCc1ccc2ccc(Cl)cc2n1
19	Cc1oc(-c2ccccc2)nc1COc1cc(-c2ccc(C(=O)N3CCC(N4CCCC4)CC3)cc2)cnc1N
18	Cc1cc(=O)n2nc(COc3cc(-c4ccc(C(=O)N5CCC(N6CCCC6)CC5)cc4)cnc3N)nc2[nH]1
19	Nc1ncc(-c2ccc(C(=O)N3CCC(N4CCCC4)CC3)cc2)cc1OCc1nnnn1Cc1ccccc1
16	Nc1ncc(-c2ccc(C(=O)N3CCC(N4CCCC4)CC3)cc2)cc1OCc1nc2ncc(Cl)cc2[nH]1
17	Nc1ncc(-c2ccc(C(=O)N3CCC(N4CCCC4)CC3)cc2)cc1OCc1nc2cccnc2[nH]1
17	Nc1ncc(-c2ccc(C(=O)N3CCC(N4CCCC4)CC3)cc2)cc1OCc1nc2ncccc2o1
20	COc1cc(OC)nc(COc2cc(-c3ccc(C(=O)N4CCC(N5CCCC5)CC4)cc3)cnc2N)n1
12	Cc1[nH]cnc1COc1cc(-c2ccc(C(=O)N3CCC(N4CCCC4)CC3)cc2)cnc1N
16	CCCCc1nc(COc2cc(-c3ccc(C(=O)N4CCC(N5CCCC5)CC4)cc3)cnc2N)c[nH]1
23	COc1ccnc(COc2cc(-c3ccc(C(=O)N4CCC(N5CCCC5)CC4)cc3)cnc2N)c1OC
16	Nc1ncc(-c2ccc(C(=O)N3CCC(N4CCCC4)CC3)cc2)cc1OCc1cn2cc(Cl)ccc2n1
16	Cc1cccnc1COc1cc(-c2ccc(C(=O)N3CCC(N4CCCC4)CC3)cc2)cnc1N
16	Cc1ccn2cc(COc3cc(-c4ccc(C(=O)N5CCC(N6CCCC6)CC5)cc4)cnc3N)nc2c1
17	Cc1oc(-c2ccc(F)cc2)nc1COc1cc(-c2ccc(C(=O)N3CCC(N4CCCC4)CC3)cc2)cnc1N
17	Cc1cccc(COc2cc(-c3ccc(C(=O)N4CCC(N5CCCC5)CC4)cc3)cnc2N)n1
16	Cc1cc(C)nc(COc2cc(-c3ccc(C(=O)N4CCC(N5CCCC5)CC4)cc3)cnc2N)n1
19	COc1ccccc1-c1nc(COc2cc(-c3ccc(C(=O)N4CCC(N5CCCC5)CC4)cc3)cnc2N)c(C)o1
15	CCc1ccc(COc2cc(-c3ccc(C(=O)N4CCC(N5CCCC5)CC4)cc3)cnc2N)nc1
8	Cc1oc(-c2cccc(F)c2)nc1COc1cc(-c2ccc(C(=O)N3CCC(N4CCCC4)CC3)cc2)cnc1N
14	Cn1nc(C(F)(F)F)c2cc(COc3cc(-c4ccc(C(=O)N5CCC(N6CCCC6)CC5)cc4)cnc3N)sc21
23	Nc1ncc(-c2ccc(C(=O)N3CCC(N4CCCC4)CC3)cc2)cc1OCc1cc(-c2ccc(Cl)cc2)no1
7	Cn1nc(CC2CC2)nc1COc1cc(-c2ccc(C(=O)N3CCC(N4CCCC4)CC3)cc2)cnc1N
9	Nc1ncc(-c2ccc(C(=O)N3CCC(N4CCCC4)CC3)cc2)cc1OCc1cnc(N)c(N)n1
